In general, T/C refers to the ratio of treated to control.

The source of these data is patent US4532327A, “Sesbanimide and the use thereof in treating leukemic tumors” (priority 1983, dated 1985).

Where two headings read alike, the source gives them in different places.

The test system of one experiment is lymphoid leukemia L1210. Put plainly: lymphoid leukemia L1210 in mice (NCI Protocol 1.100). Type of experiment: in vivo. The following applies: female CDF1 mice, active if ≥125%. Here is the method:
This assay was conducted in accordance with the NCI Protocol 1.100 described in Geran et al., supra, page 7. Starting 24 hr. after the tumor implantation, predetermined doses of the compound were injected intraperitoneally once a day for 9 days.
(§1) ^1 All hosts were type CDF1 mice. Six replicate mice were tested
(§2) ^2 The doses are reported as micrograms per kilogram of host body
(§3) weight per injection. The injection vehicle in all cases was water.
(§4) ^3 T/C = mean survival time of test animals/mean survival time of
(§5) control animals; 125% or above considered active.

Experiment [1] has as its system lymphocytic leukemia cells of the strain P388 (PS tumors). Put plainly: lymphocytic leukemia P388 (PS tumors) implanted in mice (NCI Protocol 1.200). The format is in vivo, mice (CDF1). To be noted: active if ≥125%. The method, then:
As previously mentioned, the fractionation of Example 1 was also guided by assaying the effectiveness of the various fractions against lymphocytic leukemia cells of the strain P388 (PS tumors) implanted in mice. These assays were made according to the National Cancer Institute Protocol 1.200 described in Geran et al., supra, page 9. Starting 24 hr. after the tumor implantation, previously determined dosages of each fraction were injected intraperitoneally once a day for 9 days. Survival time of treated leukemic mice is compared to that of untreated leukemic mice (T/C×100). A T/C value of 100% indicated no activity. A T/C value greater than 100% means that the treated mice are surviving longer than the control mice. A fraction giving a T/C value greater than 125% is indicative of activity as defined by the NCI Protocols, above. Activities of the fractions comprising the pure or substantially pure sesbanimide isolates as reported in Table II establish the utility of the compounds as antileukemic agents.
as §1, §2, §3, §4, §5

The next experiment deals with KB Cell Culture. The format is cell-based. To be noted: Example 1 fractions, active if ED50 ≤30 μg./ml. Here is the method: Chemotherapeutic Activity. The chemotherapeutic activities of the fractions obtained in the isolation procedure of Example 1 were determined in part by a KB Cell Culture Screen in accordance with the National Cancer Institute Protocol 1.600 [Geran et al., Cancer Chemother, Rep., Part 3, 3(2): 17 (1972)]. […] Such a dose is referred to as ED50 and activity is indicated for ED50 levels of ≤30 μg./ml.

Experiment [2] has as its system lymphocytic leukemia P388 (PS). To be noted: attributed in U.S. Pat. No. 4,200,639 (disclaimed); cited from earlier work.
A further experiment deals with KB cell. The following applies: attributed in U.S. Pat. No. 4,200,639 (disclaimed); cited from earlier work.

In the case of `C=C1COC(O)(C2OCOC(C3CC(=O)NC(=O)C3)C2O)C1C` (stereo not drawn) [Sesbanimide A], the T/C with lymphoid leukemia L1210 (16.00 μg./kg./inj. i.p. once a day for 9 days) was 116%; with lymphoid leukemia L1210 (32.00 μg./kg./inj. i.p. once a day for 9 days), 135%; with lymphoid leukemia L1210 (64.00 μg./kg./inj. i.p. once a day for 9 days) it was “toxic”; in experiment [1] (female CDF1 mice, 2.00 μg./kg./inj. i.p. once a day for 9 days) it was 119%; in experiment [1] (female CDF1 mice, 4.00 μg./kg./inj. i.p. once a day for 9 days) it was 119%; in experiment [1] (female CDF1 mice, 8.00 μg./kg./inj. i.p. once a day for 9 days) it was 140%. In addition, the T/C in experiment [1] (female CDF1 mice, 16.00 μg./kg./inj. i.p. once a day for 9 days) is recorded as 149%; in experiment [1] (female CDF1 mice, 32.00 μg./kg./inj. i.p. once a day for 9 days), 181%. For the same molecule, in the experiment with KB Cell Culture (listed as K443, 4320 min), the “ED50 (dose that inhibits growth to 50% of control growth by 3 days after drug addition)” value turned out to be 0.0077 µg/mL.

Regarding `C=C1COC(O)(C2OCOC(C3CC(=O)NC(=O)C3)C2O)C1C` (stereo not drawn) [Sesbanimide B], the T/C is 157% in experiment [1] (male CDF1 mice, 1.87 μg./kg./inj. i.p. once a day for 9 days); 161% in experiment [1] (male CDF1 mice, 3.75 μg./kg./inj. i.p. once a day for 9 days); “toxic” in experiment [1] (male CDF1 mice, 7.50 μg./kg./inj. i.p. once a day for 9 days). The “ED50 (dose that inhibits growth to 50% of control growth by 3 days after drug addition)” value in the experiment on KB Cell Culture (listed as K442, 4320 min) was determined as 0.068 µg/mL.

Regarding `O=C1NC(=O)[C@@]2(CC[C@@H](O)C2)c2ccncc21` [sesbanine], in experiment [2], the “apparent activity in the PS tumor system” value is on record as “result of a heretofore unidentified impurity”. Moreover, the “apparent activity in the KB cell screen” value in the experiment with KB cell is “result of a heretofore unidentified impurity”.
